Drawing on US20090192192A1, “INHIBITORS OF BIOFILM FORMATION OF GRAM-POSITIVE AND GRAM-NEGATIVE BACTERIA” (priority 2007, published 2009), this text covers inhibition for 21 molecules.

The assay has as its system Pseudomonas aeruginosa PAO1. The assay can be described thus: MBEC assay, biofilm formation of P. aeruginosa PAO1. Format: cell-based. The settings on record: compound concentration 100 μM, class symbols. How it is done: The compound to be tested was dissolved in DMSO to obtain a concentration that was 100 times that of the final concentration required (1 mM for the 10 μM assay and 10 mM for the 100 μM assay). 1.5 μL of the above solution was placed into each well of a 96 well plate (final volume in each well=150 μL, final DMSO concentration of 1% (v/v)).
To grow the organism and form a biofilm, a cryogenic stock of the test organism (at −70° C.) was used. A first sub-culture was streaked out onto TSA (tryptic soy agar), upon which the plate was incubated at 35±2° C. for 24 hours and stored wrapped in parafilm at 4° C. afterwards. From this first sub-culture, a second sub-culture was streaked out onto TSA. The plate was incubated at 35±2° C. for 24 hours. The second sub-culture was used within 24 hours starting from the time it was first removed from incubation. Using the second sub-culture an inoculum in 3 mL sterile water that matches a 0.5 McFarland Standard (1.5×10^8 cells per mL) was created in a glass test tube using a sterile cotton swab. 2.2 mL of this solution was diluted in 22 mL 100% TSB (tryptic soy broth) medium to a cell density of approximately […]. The diluted organism was inverted 3-5 times to achieve uniform mixing of the organism. One sample (100 μl) of the diluted organism was used for an inoculum check by serially diluting and spot plating on TSA.
To prepare a challenge plate, […] of the diluted organism was added to each well of a 96 well plate except the sterility control wells. The test compounds were added to the wells to make up final concentrations of 10 μM and […] (1.5 μL/well) in the designated location in the test plate. 128.5 μL of 100% universal neutralizer (1% Tween 80 in Cation Adjusted Mueller Hinton Broth, CAMHB) was placed in each of the wells. 130 μL of media was added to the growth control wells. 128.5 μL of media+1.5 μL of DMSO were added to a second set of growth control wells. 150 μL of media was added to the sterility controls. Each sample was run in triplicate. The plate was covered by a lid with a peg per well and wrapped in parafilm and placed on a shaker in a humidified incubator (GeneVac) at 35±+2° C. for 24 hours set at 110 rpm.
Rinse plate(s) of 0.9% saline (200 μL per well) were prepared in a sterile 96 well microtitre plate. Lid-associated pegs were rinsed in 0.9% saline for approximately 1-2 minutes. The peg lid was transferred to the recovery media (1.0% Tween 80 in CAMHB) then sonicated for 30 minutes to dislodge surviving biofilm. Following sonication, 100 μL from each well of the 96 well plate was placed into the first 12 wells of the first row of a 96 well microtiter plate. 180 μl of 0.9% sterile saline was placed in the remaining rows. A serial dilution (10^0-10^7) was prepared by moving 20 μl down each of the 8 rows. 20 μl from each well was removed and spot plated on a prepared TSA. In the remaining recovery plate, 100 μl of fresh growth media (1.0% Tween 80 in CAMHB) was placed in each well to replace the amount removed. The recovery plate was covered with a regular lid and incubated at 35±2° C. for 24 hours and read visually to confirm antimicrobial activity of the test compounds.
The compounds of the present disclosure have been tested regarding their efficiency to inhibit biofilm formation of Staphylococcus aureus U of C#18 (MRSA), Staphylococcus aureus 456 (MRSA), Staphylococcus epidermidis RP62A, and Pseudomonas aeruginosa PAO1.
Regarding `CCCCCCCCCC(=O)NC(=O)Nc1ccnn1C` [Example 99, N-(1-methylpyrazol-5-ylcarbamoyl)decanamide], the inhibition at 100 µM is 20 to 50%. `CCCCCCCCCC(=O)NC(=O)Nc1cc(C)nn1C` [Example 100, N-(1,3-dimethylpyrazol-5-ylcarbamoyl)decanamide]: the inhibition at 100 µM is 20 to 50%. In turn, `CCCCCCCCCC(=O)NC(=O)Nc1cc(C)ns1` [Example 101, N-(3-methylisothiazol-5-ylcarbamoyl)decanamide] returned an inhibition at 100 µM of 20 to 50%. As for `CCCCCCCCCOCC(=O)N(C)c1ccc(F)cc1` [Example 102, N-(4-fluorophenyl)-N-methyl-2-(nonyloxy)acetamide], the figure is 20 to 50%; as for `CCCCCCCCCOCC(=O)Nc1ccc(F)cc1C(F)(F)F` [Example 103, N-(4-fluoro-2-(trifluoromethyl)phenyl)-2-(nonyloxy)acetamide], 20 to 50%; as for `CCCCCCCCCOCC(=O)N[C@@H](C)c1ccccc1` [Example 104, (S)-2-(nonyloxy)-N-(1-phenylethyl)acetamide], > 50%. As for `CCCCCCCCCOCC(=O)Nc1ccnn1CC` [Example 105, N-(1-ethylpyrazol-5-yl)-2-(nonyloxy)acetamide], the inhibition at 100 µM is > 50%. As for `CCCCCCCCCOCC(=O)Nc1cc(C2CC2)nn1C` [Example 106, N-(3-cyclopropyl-1-methylpyrazol-5-yl)-2-(nonyloxy)acetamide], the figure is > 50%; as for `CCCCCCCCCOCC(=O)Nc1cc(C(C)(C)C)nn1C` [Example 107, N-(3-tert-butyl-1-methylpyrazol-5-yl)-2-(nonyloxy)acetamide], > 50%; as for `CCCCCCCCCOCC(=O)Nc1cc(-c2ccccc2)nn1C` [Example 108, N-(1-methyl-3-phenylpyrazol-5-yl)-2-(nonyloxy)acetamide], > 50%. In turn, `CCCCCCCCCOCC(=O)Nc1cc(C(C)(C)C)on1` [Example 109, N-(5-tert-butylisoxazol-3-yl)-2-(nonyloxy)acetamide] gave an inhibition at 100 µM of 20 to 50%. `CCCCCCCCCOCC(=O)Nc1nnc(-c2ccccc2)s1` [Example 110, 2-(nonyloxy)-N-(5-phenyl-1,3,4-thiadiazol-2-yl)acetamide]: the inhibition at 100 µM is < 20%. To `CCCCCCCCCOCC(=O)N[C@H]1CCOC1=O` [Example 111, N-(2-nonyloxyacetyl)-L-homoserinelactone] belongs < 20%. On to `CCCCCCCCOCCC(=O)N[C@H]1CCOC1=O` [Example 112, N-(3-octyloxypropanoyl)-L-homoserinelactone], for which the inhibition at 100 µM was < 20%. As for `CCCCCCCCOCCC(=O)N[C@@H](C)c1ccccc1` [Example 113, (S)-3-(octyloxy)-N-(1-phenylethyl)propanamide], the figure is > 50%; as for `CCCCCCCCOCCC(=O)Nc1cc(C)nn1C` [Example 114, N-(1,3-dimethylpyrazol-5-yl)-3-(octyloxy)propanamide], 20 to 50%. To `CCCCCCCCOCCC(=O)Nc1cc(C2CC2)nn1C` [Example 115, N-(3-cyclopropyl-1-methylpyrazol-5-yl)-3-(octyloxy)propanamide] belongs > 50%; to `CCCCCCCCOCCC(=O)Nc1cc(C(C)(C)C)nn1C` [Example 116, N-(3-tert-butyl-1-methylpyrazol-5-yl)-3-(octyloxy)propanamide], > 50%; to `CCCCCCCCOCCC(=O)Nc1cc(-c2ccccc2)nn1C` [Example 117, N-(1-methyl-3-phenylpyrazol-5-yl)-3-(octyloxy)propanamide], > 50%. Turning to `CCCCCCCCOCCC(=O)Nc1nnc(-c2ccccc2)s1` [Example 118, 3-(octyloxy)-N-(5-phenyl-1,3,4-thiadiazol-2-yl)propanamide], the inhibition at 100 µM is < 20%. For the molecule `CCCCOCCOCC(=O)N(C)c1ccc(F)cc1` [Example 119, 2-(2-butoxyethoxy)-N-(4-fluorophenyl)-N-methylacetamide], the inhibition at 100 µM was < 20%.

One may read the inhibition as the percentage by which the read-out fell short of the control.
